{
  "source": "patent US11708338B2",
  "about": "“Substituted phenyl sulfonyl phenyl triazole thiones and uses thereof” (Neuropore Therapies, Inc., priority 2017, dated 2023)",
  "format_in_all_cases": "in vivo, mouse",
  "key": {"[1]": {"tested_on": "glial fibrillary acidic protein (GFAP)", "test": "GFAP IHC staining in sections containing hippocampus, 1 month administration study", "conditions": "L61 ASYN transgenic mice", "description": "Neuroinflammation is also associated with increased expression of glial fibrillary acidic protein (GFAP) in activated astrocytes, which is induced by a variety of molecules including pro-inflammatory mediators released from activated microglia (Saijo et al. 2009). Increased expression of glial fibrillary acidic protein (GFAP) represents astroglial activation and gliosis during neurodegeneration. (Brahmachari et al., 2006). The effects of Compound 1 on GFAP expression were assessed in both L61 ASYN transgenic and non-transgenic mice in a 1 month administration study. After 30 days, the mice were sacrificed, and IHC detection of GFAP was assessed in the harvested brain tissues.\nThe harvested brain tissues from treated mice were fixed (drop fixed in 4% PFA) and then sectioned into 40 micro thick sections using a vibratome. The representative sections containing the hippocampus were assessed for GFAP with standard immunohistochemistry staining. The general methods used for GFAP immunostaining follow those described in Rockenstein et al., J Neurosci Res. 2002, 68(5):568-78."}, "[2]": {"tested_on": "microtubule-associated protein 1A/1B-light chain 3 (LC3)", "test": "LC3 immunolabeling (IHC) in brain, 1 month administration study", "conditions": "L61 ASYN transgenic mice, 1, 5 or 10 mg/kg per day i.p.", "description": "Alpha-synuclein (ASYN) is a neuronal protein whose dysregulation has been implicated in the pathogenesis of PD. The effects of Compound 1 on alpha-synuclein aggregation were assessed in both L61 ASYN transgenic and non-transgenic mice in a 1 month administration study. L61 ASYN transgenic mice (36 total mice, n=8-11 mice per treatment group) were injected (i.p.) with 1, 5, or 10 mg/kg of Compound 1 or a vehicle control (5% DMSO+20% Cremphor EL+0.9% normal saline) per day for 1 month. Non-transgenic mice (18 total mice, n=8-11 mice per treatment group) were used as a control and were injected daily (i.p.) with 10 mg/kg of Compound 1 or a vehicle control (5% DMSO+20% Cremphor EL+0.9% normal saline) per day for 1 month. At the end of one month, the mice were sacrificed, and immunohistochemical (IHC) detection of total alpha-synuclein deposits, insoluble alpha-synuclein deposits (PK+resistant), microtubule-associated protein 1A/1B-light chain 3 (LC3), and monomeric alpha-synuclein levels were assessed in the harvested brain tissues."}, "[3]": {"tested_on": "monomeric ASYN", "test": "ProteinSimple western biochemical evaluation of monomeric ASYN in cytosolic fraction of brain homogenates", "conditions": "L61 ASYN transgenic mice, 1, 5 or 10 mg/kg per day i.p., 1 month", "description": "(§1) Multiple in vivo administration studies of Compound 1 were carried out in the Line 61 (L61) mThy1-alpha-synuclein transgenic mouse model of Parkinson's disease (PD). The mThy1-alpha-synuclein transgenic mouse model overexpresses wild-type human ASYN under the Thy-1 promoter studies (commonly referred to as Line 61 transgenic mice; Rockenstein et al., 2002). […]\n(§2) Alpha-synuclein (ASYN) is a neuronal protein whose dysregulation has been implicated in the pathogenesis of PD. The effects of Compound 1 on alpha-synuclein aggregation were assessed in both L61 ASYN transgenic and non-transgenic mice in a 1 month administration study. […] At the end of one month, the mice were sacrificed, and immunohistochemical (IHC) detection of total alpha-synuclein deposits, insoluble alpha-synuclein deposits (PK+resistant), microtubule-associated protein 1A/1B-light chain 3 (LC3), and monomeric alpha-synuclein levels were assessed in the harvested brain tissues.\nBiochemical evaluations were conducted using a ProteinSimple© western biochemical evaluation. Briefly, samples were mixed with pre-calculated volumes of 0.1×Sample Buffer and 5×Fluorescent Master Mix to make a final sample concentration of 0.4 mg/mL in 10 μL solution for signal optimization and evaporation reduction. […]"}, "[4]": {"tested_on": "dopaminergic (DAT) transporter", "test": "DAT IHC immunolabeling in striatum, striatal-to-reference ratio", "conditions": "L61 ASYN transgenic mice, 3 months", "description": "The harvested brain tissues were drop fixed using 4% PFA and sectioned on a vibratome, and representative sections corresponding to the striatum and cerebellum were assessed for DAT with IHC staining.\nImmunolabeling studies of DAT were conducted using a monoclonal antibody (1:500; MAB369; Millipore, Temecula, Calif.) and a biotinylated secondary antibody (1:100; BA4000, Vector Labs) and analysis was performed on blindcoded sections from Line 61 transgenic and non-transgenic mice. Slides were digitized using a high resolution automated Nanozoomer slide scanner (Hamamatsu Corp.). Digitized images were analyzed using Halo (Indica Labs) image analysis software package by placing an ROI frame within the dorsal striatum and another within a separate reference brain region (for normalization of DAT signal). A thresholding algorithm was defined and then applied equally to all images to determine the average optical density of DAT immunolabeling across each ROI The results of the analysis were then exported for graphing and statistical analysis and the striatal DAT:cortical (reference region) DAT optical densities ratio was calculated for each subject.\nQuantification of DAT density was carried out by calculating the immunofluorescence in striatal sections against that in cerebellum sections to derive a striatal-to-reference ratio."}, "[5]": {"tested_on": "insoluble alpha-synuclein deposits (PK+resistant)", "test": "IHC quantification of insoluble (PK+resistant) alpha-synuclein deposits in brain, 1 month administration study", "conditions": "L61 ASYN transgenic mice, FIG. 9A", "description": "as §1, §2\nThe quantification and IHC staining of PK-resistant alpha-synuclein were performed using known techniques (Rockenstein et al., J Neurosci Res. 2002, 68(5):568-78; Tanji et al., Acta Neuropathol. 2010, 120, 145-154; Nuber et al., Brain. 2013, February; 136(Pt 2):412-32)."}},
  "data": [
    {"compound": "O=S(=O)(c1ccc(-n2cn[nH]c2=S)cc1)c1ccc(Cl)c(C(F)(F)F)c1", "note": "[Compound 1, 4-(4-((4-chloro-3-(trifluoromethyl)phenyl)sulfonyl)phenyl)-2,4-dihydro-3H-1,2,4-triazole-3-thione]", "values": [
      {"measurement": "GFAP levels, IHC staining intensity in representative images (FIG. 16)", "setting": "[1]; 5 mg/kg or 10 mg/kg daily i.p.", "result": "reducing cortical levels of GFAP"},
      {"measurement": "GFAP levels, quantification (FIG. 17)", "setting": "[1]; 10 mg/kg dose i.p. daily", "result": "reduces the cortical GFAP levels in a statistically significant manner"},
      {"measurement": "levels of LC3 immunolabeling in cortex", "setting": "[2]", "result": "increased"},
      {"measurement": "levels of LC3 immunolabeling in hippocampus (increase)", "setting": "[2]", "result": "not"},
      {"measurement": "levels of LC3 immunolabeling in striatum", "setting": "[2]", "result": "increased"},
      {"measurement": "cortical levels of monomeric ASYN in cytosolic fraction of brain homogenates", "setting": "[3]", "result": "reduced"},
      {"measurement": "hippocampal levels of monomeric ASYN in cytosolic fraction of brain homogenates", "setting": "[3]", "result": "reduced"},
      {"measurement": "striatal levels of DAT, staining intensity in representative images (FIG. 18) vs vehicle-treated L61 mice", "setting": "[4]; 5 mg/kg or 10 mg/kg daily", "result": "restoring striatal levels of DAT"},
      {"measurement": "DAT striatal-to-reference ratio, quantification (FIG. 19)", "setting": "[4]; 10 mg/kg dose", "result": "reduces the GFAP levels in a statistically significant manner"},
      {"measurement": "reduction of PK-resistant alpha synuclein levels in cortex as compared to vehicle-treated mice", "setting": "[5]; 5 mg/kg daily i.p.", "result": 37, "unit": "%"},
      {"measurement": "reduction of PK-resistant alpha synuclein levels in cortex as compared to vehicle-treated mice", "setting": "[5]; 10 mg/kg daily i.p.", "result": 36, "unit": "%"}
    ]}
  ]
}
